Read-outs that look alike come from different tables or passages of the source.
Experiments:
Format in all cases: in vivo
[1] = system: eastern black nightshade (Solanum ptycanthum); assay: Test C pre/postemergence; conditions: Preemergence; for pest or weed control at 62 g/ha / pest or weed control at 125 g/ha / pest or weed control at 250 g/ha / pest or weed control at 500 g/ha: Solanum, pre-emergence, read-out: Plant response rating, Nightshade
In short: (§1)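 Greenhouse herbicide screen, visual readout. Compound in solvent/surfactant applied preemergence at planting or postemergence to 1- to 4-leaf plants; assessed at 12–14 days on a 0–100 control scale.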

[2] = system: morningglory (Ipomoea coccinea); assay: Test C pre/postemergence; conditions: for pest or weed control at 62 g/ha / pest or weed control at 125 g/ha / pest or weed control at 250 g/ha / pest or weed control at 500 g/ha: Ipomoea
In short: as §1

[3] = system: woolly cupgrass (Eriochloa villosa); assay: Test C pre/postemergence
In short: as §1

[4] = system: chickweed (Stellaria media); assay: Test C postemergence; conditions: for Plant response rating, Chickweed: scale 0 to 100
In short: as §1

[5] = Postemergence, 62 g ai/ha, scale 0 to 100 (0 no effect, 100 complete control)
[6] = Postemergence, 125 g ai/ha, scale 0 to 100 (0 no effect, 100 complete control)
[7] = Postemergence, 250 g ai/ha, scale 0 to 100
[8] = Postemergence, 500 g ai/ha, scale 0 to 100
[9] = Preemergence, 62 g ai/ha, scale 0 to 100, 0 no effect, 100 complete control
[10] = Preemergence, 125 g ai/ha, scale 0 to 100
[11] = Preemergence, 250 g ai/ha, scale 0 to 100
[12] = Preemergence, 500 g ai/ha, scale 0 to 100
[13] = 62 g ai/ha, scale 0 to 100 (0 no effect, 100 complete control)
[14] = 16 g ai/ha, scale 0 to 100, 0 no effect, 100 complete control
[15] = 31 g ai/ha, scale 0 to 100, 0 no effect, 100 complete control
[16] = 62 g ai/ha, scale 0 to 100, 0 no effect, 100 complete control
[17] = Preemergence, 16 g ai/ha, scale 0 to 100, 0 no effect, 100 complete control
[18] = Preemergence, 31 g ai/ha, scale 0 to 100, 0 no effect, 100 complete control
[19] = pre-emergence, Preemergence, 62 g ai/ha, scale 0 to 100, 0 no effect, 100 complete control, read-out: Plant response rating, Morningglory
[20] = pre-emergence, Preemergence, 125 g ai/ha, scale 0 to 100, read-out: Plant response rating, Morningglory
[21] = pre-emergence, Preemergence, 250 g ai/ha, scale 0 to 100, read-out: Plant response rating, Morningglory
[22] = pre-emergence, Preemergence, 500 g ai/ha, scale 0 to 100, read-out: Plant response rating, Morningglory
[23] = Eriochloa villosa, pre-emergence, Preemergence, 62 g ai/ha, scale 0 to 100, 0 no effect, 100 complete control, read-out: Plant response rating, Cupgrass, Woolly
[24] = Eriochloa villosa, pre-emergence, Preemergence, 125 g ai/ha, scale 0 to 100, read-out: Plant response rating, Cupgrass, Woolly
[25] = Eriochloa villosa, pre-emergence, Preemergence, 250 g ai/ha, scale 0 to 100, read-out: Plant response rating, Cupgrass, Woolly
[26] = Eriochloa villosa, pre-emergence, Preemergence, 500 g ai/ha, scale 0 to 100, read-out: Plant response rating, Cupgrass, Woolly

SMILES: COC(=O)CNc1nc(C2CC2)nc(C(=O)OC)c1Br [Compound 10]
- Plant response rating, Nightshade ([1]; 250 g ai/ha, scale 0 to 100): 20
- Plant response rating, Nightshade ([1]; 500 g ai/ha, scale 0 to 100): 95
- Morningglory plant response rating [2, 5]: 70
- Morningglory plant response rating [2, 6]: 85
- Plant response rating, Morningglory [2, 7]: 95
- Plant response rating, Morningglory [2, 8]: 95
- Plant response rating, Morningglory [2, 9]: 0
- Plant response rating, Morningglory [2, 10]: 0
- Plant response rating, Morningglory [2, 11]: 0
- Plant response rating, Morningglory [2, 12]: 100
- Cupgrass, Woolly plant response rating [3, 5]: 0
- Cupgrass, Woolly plant response rating [3, 6]: 0
- Plant response rating, Cupgrass, Woolly [3, 7]: 0
- Plant response rating, Cupgrass, Woolly [3, 8]: 0
- Plant response rating, Cupgrass, Woolly [3, 9]: 0
- Plant response rating, Cupgrass, Woolly [3, 10]: 0
- Plant response rating, Cupgrass, Woolly [3, 11]: 0
- Plant response rating, Cupgrass, Woolly [3, 12]: 0
- Chickweed plant response rating [4, 13]: 0
- Plant response rating, Chickweed ([4]; 125 g ai/ha): 0
- Plant response rating, Chickweed ([4]; 250 g ai/ha): 20
- Plant response rating, Chickweed ([4]; 500 g ai/ha): 70

SMILES: CCOC(=O)C(OC(C)=O)c1nc(C2CC2)nc(N)c1Br (centres unmarked) [Compound 47]
- Plant response rating, Nightshade [1, 14]: 80
- Plant response rating, Nightshade [1, 15]: 85
- Plant response rating, Nightshade [1, 16]: 95
- Plant response rating, Nightshade ([1]; 125 g ai/ha, scale 0 to 100): 100
- Plant response rating (scale of 0 to 100), Morningglory ([2]; Postemergence, 16 g ai/ha): 20
- Plant response rating (scale of 0 to 100), Morningglory ([2]; Postemergence, 31 g ai/ha): 35
- Morningglory plant response rating [2, 5]: 40
- Morningglory plant response rating [2, 6]: 65
- Plant response rating, Morningglory [2, 17]: 0
- Plant response rating, Morningglory [2, 18]: 0
- Plant response rating, Morningglory [2, 9]: 70
- Plant response rating, Morningglory [2, 10]: 100
- Plant response rating (scale of 0 to 100), Cupgrass, Woolly ([3]; Postemergence, 16 g ai/ha): 0
- Plant response rating (scale of 0 to 100), Cupgrass, Woolly ([3]; Postemergence, 31 g ai/ha): 0
- Cupgrass, Woolly plant response rating [3, 5]: 0
- Cupgrass, Woolly plant response rating [3, 6]: 0
- Plant response rating, Cupgrass, Woolly [3, 17]: 0
- Plant response rating, Cupgrass, Woolly [3, 18]: 0
- Plant response rating, Cupgrass, Woolly [3, 9]: 0
- Plant response rating, Cupgrass, Woolly [3, 10]: 0
- Plant response rating (scale of 0 to 100), Chickweed ([4]; 16 g ai/ha): 0
- Plant response rating (scale of 0 to 100), Chickweed ([4]; 31 g ai/ha): 0
- Chickweed plant response rating [4, 13]: 0
- Chickweed plant response rating ([4]; 125 g ai/ha, scale 0 to 100 (0 no effect, 100 complete control)): 0

SMILES: Nc1nc(C2CC2)nc(C(=O)OCc2ccccc2)c1Br [Compound 22, phenylmethyl 6-amino-5-bromo-2-cyclopropyl-4-pyrimidinecarboxylate]
- pest or weed control at 62 g/ha [1, 16]: 100%
- pest or weed control at 125 g/ha ([1]; 125 g ai/ha, scale 0 to 100): 100%
- pest or weed control at 250 g/ha ([1]; 250 g ai/ha, scale 0 to 100): 100%
- pest or weed control at 500 g/ha ([1]; 500 g ai/ha, scale 0 to 100): 100%
- pest or weed control at 62 g/ha ([2]; post-emergence, Postemergence, 62 g ai/ha, scale 0 to 100 (0 no effect, 100 complete control), read-out: Morningglory plant response rating): 90%
- pest or weed control at 125 g/ha ([2]; post-emergence, Postemergence, 125 g ai/ha, scale 0 to 100 (0 no effect, 100 complete control), read-out: Morningglory plant response rating): 90%
- pest or weed control at 250 g/ha ([2]; post-emergence, Postemergence, 250 g ai/ha, scale 0 to 100, read-out: Plant response rating, Morningglory): 95%
- pest or weed control at 500 g/ha ([2]; post-emergence, Postemergence, 500 g ai/ha, scale 0 to 100, read-out: Plant response rating, Morningglory): 100%
- pest or weed control at 62 g/ha [2, 19]: 100%
- pest or weed control at 125 g/ha [2, 20]: 100%
- pest or weed control at 250 g/ha [2, 21]: 100%
- pest or weed control at 500 g/ha [2, 22]: 100%
- pest or weed control at 62 g/ha ([3]; Eriochloa villosa, post-emergence, Postemergence, 62 g ai/ha, scale 0 to 100 (0 no effect, 100 complete control), read-out: Cupgrass, Woolly plant response rating): 60%
- pest or weed control at 125 g/ha ([3]; Eriochloa villosa, post-emergence, Postemergence, 125 g ai/ha, scale 0 to 100 (0 no effect, 100 complete control), read-out: Cupgrass, Woolly plant response rating): 60%
- pest or weed control at 250 g/ha ([3]; Eriochloa villosa, post-emergence, Postemergence, 250 g ai/ha, scale 0 to 100, read-out: Plant response rating, Cupgrass, Woolly): 60%
- pest or weed control at 500 g/ha ([3]; Eriochloa villosa, post-emergence, Postemergence, 500 g ai/ha, scale 0 to 100, read-out: Plant response rating, Cupgrass, Woolly): 65%
- pest or weed control at 62 g/ha [3, 23]: 40%
- pest or weed control at 125 g/ha [3, 24]: 95%
- pest or weed control at 250 g/ha [3, 25]: 95%
- pest or weed control at 500 g/ha [3, 26]: 95%
- pest or weed control at 62 g/ha ([4]; Stellaria media, post-emergence, 62 g ai/ha, scale 0 to 100 (0 no effect, 100 complete control), read-out: Chickweed plant response rating): 30%
- pest or weed control at 125 g/ha ([4]; Stellaria media, post-emergence, 125 g ai/ha, scale 0 to 100 (0 no effect, 100 complete control), read-out: Chickweed plant response rating): 60%
- pest or weed control at 250 g/ha ([4]; Stellaria media, post-emergence, 250 g ai/ha, scale 0 to 100, read-out: Plant response rating, Chickweed): 85%
- pest or weed control at 500 g/ha ([4]; Stellaria media, post-emergence, 500 g ai/ha, scale 0 to 100, read-out: Plant response rating, Chickweed): 90%

SMILES: CCCOC(=O)c1nc(C2CC2)nc(N)c1Cl [Compound 75]
- Plant response rating, Nightshade [1, 14]: 0
- Plant response rating, Nightshade [1, 15]: 50
- Plant response rating, Nightshade [1, 16]: 70
- Plant response rating, Nightshade ([1]; scale 0 to 100, 0 no effect, 100 complete control): 100
- Plant response rating, Morningglory [2, 17]: 50
- Plant response rating, Morningglory [2, 18]: 90
- Plant response rating, Morningglory [2, 9]: 95
- Plant response rating, Morningglory [2, 10]: 100
- Plant response rating, Cupgrass, Woolly [3, 17]: 0
- Plant response rating, Cupgrass, Woolly [3, 18]: 0
- Plant response rating, Cupgrass, Woolly [3, 9]: 60
- Plant response rating, Cupgrass, Woolly [3, 10]: 60

SMILES: COC(=O)Cc1nc(C2CC2)nc(N)c1Br [Compound 13]
- Plant response rating, Nightshade [1, 15]: 0
- Plant response rating, Nightshade [1, 16]: 0
- Plant response rating, Nightshade ([1]; 125 g ai/ha, scale 0 to 100): 90
- Plant response rating, Nightshade ([1]; 250 g ai/ha, scale 0 to 100): 90
- Plant response rating, Morningglory [2, 18]: 60
- Plant response rating, Morningglory [2, 9]: 65
- Plant response rating, Morningglory [2, 10]: 85
- Plant response rating, Morningglory [2, 11]: 90
- Plant response rating, Cupgrass, Woolly [3, 18]: 0
- Plant response rating, Cupgrass, Woolly [3, 9]: 0
- Plant response rating, Cupgrass, Woolly [3, 10]: 0
- Plant response rating, Cupgrass, Woolly [3, 11]: 0

SMILES: Nc1nc(C2CC2)nc(C=O)c1Br [Compound 26]
- pest or weed control at 62 g/ha [1, 16]: 10%
- pest or weed control at 125 g/ha ([1]; 125 g ai/ha, scale 0 to 100): 100%
- pest or weed control at 250 g/ha ([1]; 250 g ai/ha, scale 0 to 100): 100%
- pest or weed control at 500 g/ha ([1]; 500 g ai/ha, scale 0 to 100): 100%
- pest or weed control at 62 g/ha [2, 19]: 0%
- pest or weed control at 125 g/ha [2, 20]: 5%
- pest or weed control at 250 g/ha [2, 21]: 85%
- pest or weed control at 500 g/ha [2, 22]: 90%
- pest or weed control at 62 g/ha [3, 23]: 0%
- pest or weed control at 125 g/ha [3, 24]: 0%
- pest or weed control at 250 g/ha [3, 25]: 0%
- pest or weed control at 500 g/ha [3, 26]: 0%

SMILES: Nc1nc(C2CC2)nc(C(=O)[O-])c1Cl.[Na+] [Compound 77, 6-amino-5-chloro-2-cyclopropyl-4-pyrimidinecarboxylic acid monosodium salt]
- Plant response rating, Nightshade [1, 14]: 0
- Plant response rating, Nightshade [1, 15]: 0
- Plant response rating, Nightshade [1, 16]: 0
- Plant response rating, Morningglory [2, 17]: 5
- Plant response rating, Morningglory [2, 18]: 50
- Plant response rating, Morningglory [2, 9]: 50
- Plant response rating, Morningglory [2, 10]: 75
- pest or weed control at 31 g/ha ([3]; Eriochloa villosa, pre-emergence, Preemergence, 31 g ai/ha, scale 0 to 100, 0 no effect, 100 complete control, read-out: Plant response rating, Cupgrass, Woolly): 0%
- pest or weed control at 62 g/ha [3, 23]: 0%
- pest or weed control at 125 g/ha [3, 24]: 0%
- Plant response rating, Cupgrass, Woolly [3, 17]: 0

SMILES: CCOC(=O)C(Cl)c1nc(C2CC2)nc(N)c1Br (centres unmarked) [Compound 31]
- Plant response rating, Nightshade [1, 15]: 0
- Plant response rating, Nightshade [1, 16]: 0
- Plant response rating, Nightshade ([1]; 125 g ai/ha, scale 0 to 100): 0
- Plant response rating, Morningglory [2, 18]: 0
- Plant response rating, Morningglory [2, 9]: 0
- Plant response rating, Morningglory [2, 10]: 10
- Plant response rating, Morningglory [2, 11]: 50
- Plant response rating, Cupgrass, Woolly [3, 18]: 0
- Plant response rating, Cupgrass, Woolly [3, 9]: 0
- Plant response rating, Cupgrass, Woolly [3, 10]: 0
- Plant response rating, Cupgrass, Woolly [3, 11]: 0

— patent US8802597B2, “Herbicidal pyrimidines” (E I du Pont de Nemours and Company, priority 2003, dated 2014)
